From the supplement of paper PMC10307832

What was measured:
Assay in all cases: relative viability (nuclei count vs DMSO), 5 days (fraction); higher = more cells survive
Everolimus + Navitoclax = compound: CO[C@H]1C[C@@H]2CC[C@@H](C)[C@@](O)(O2)C(=O)C(=O)N2CCCC[C@H]2C(=O)O[C@H]([C@H](C)C[C@@H]2CC[C@@H](OCCO)[C@H](OC)C2)CC(=O)[C@H](C)/C=C(\C)[C@@H](O)[C@@H](OC)C(=O)[C@H](C)C[C@H](C)/C=C/C=C/C=C/1C [Everolimus] + CC1(C)CCC(c2ccc(Cl)cc2)=C(CN2CCN(c3ccc(C(=O)NS(=O)(=O)c4ccc(N[C@H](CCN5CCOCC5)CSc5ccccc5)c(S(=O)(=O)C(F)(F)F)c4)cc3)CC2)C1 [Navitoclax] (partner 0.5 µM)
Outline: (§1)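 For relative viability, nuclei counts in treated wells were divided by those in vehicle wells. Lung cancer cell lines had been pin-tool dosed in 1536-well plates the day after seeding and cultured for 5 days, then fixed and stained in one step (final 0.05% Triton X-100, 1% formaldehyde, 1 ug/ml Hoechst) and imaged at 4×. Doses were one drug alone or a fixed anchor-drug dose plus five library-drug doses (not always all listed) in √10 steps, and values are duplicate-plate medians.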

Everolimus + Luminespib = compound: CO[C@H]1C[C@@H]2CC[C@@H](C)[C@@](O)(O2)C(=O)C(=O)N2CCCC[C@H]2C(=O)O[C@H]([C@H](C)C[C@@H]2CC[C@@H](OCCO)[C@H](OC)C2)CC(=O)[C@H](C)/C=C(\C)[C@@H](O)[C@@H](OC)C(=O)[C@H](C)C[C@H](C)/C=C/C=C/C=C/1C [Everolimus] + CCNC(=O)c1noc(-c2cc(C(C)C)c(O)cc2O)c1-c1ccc(CN2CCOCC2)cc1 [Luminespib] (partner 0.01 µM)
Outline: as §1

Everolimus + Dasatinib = compound: CO[C@H]1C[C@@H]2CC[C@@H](C)[C@@](O)(O2)C(=O)C(=O)N2CCCC[C@H]2C(=O)O[C@H]([C@H](C)C[C@@H]2CC[C@@H](OCCO)[C@H](OC)C2)CC(=O)[C@H](C)/C=C(\C)[C@@H](O)[C@@H](OC)C(=O)[C@H](C)C[C@H](C)/C=C/C=C/C=C/1C [Everolimus] + Cc1nc(Nc2ncc(C(=O)Nc3c(C)cccc3Cl)s2)cc(N2CCN(CCO)CC2)n1 [Dasatinib] (partner 0.075 µM)
Outline: as §1

Everolimus + Bortezomib = compound: CO[C@H]1C[C@@H]2CC[C@@H](C)[C@@](O)(O2)C(=O)C(=O)N2CCCC[C@H]2C(=O)O[C@H]([C@H](C)C[C@@H]2CC[C@@H](OCCO)[C@H](OC)C2)CC(=O)[C@H](C)/C=C(\C)[C@@H](O)[C@@H](OC)C(=O)[C@H](C)C[C@H](C)/C=C/C=C/C=C/1C [Everolimus] + CC(C)C[C@H](NC(=O)[C@H](Cc1ccccc1)NC(=O)c1cnccn1)B(O)O [Bortezomib] (partner 0.002 µM)
Outline: as §1

Cell Line	relative viability (Everolimus + Navitoclax; first compound 0.01 µM)	relative viability (Everolimus + Navitoclax; first compound 0.03162 µM)	relative viability (Everolimus + Navitoclax; first compound 0.1 µM)	relative viability (Everolimus + Navitoclax; first compound 0.3162 µM)	relative viability (Everolimus + Navitoclax; first compound 1 µM)	relative viability (Everolimus + Luminespib; first compound 0.01 µM)	relative viability (Everolimus + Luminespib; first compound 0.03162 µM)	relative viability (Everolimus + Luminespib; first compound 0.3162 µM)	relative viability (Everolimus + Luminespib; first compound 1 µM)	relative viability (Everolimus + Dasatinib; first compound 0.01 µM)	relative viability (Everolimus + Dasatinib; first compound 0.03162 µM)	relative viability (Everolimus + Dasatinib; first compound 0.3162 µM)	relative viability (Everolimus + Dasatinib; first compound 1 µM)	relative viability (Everolimus + Bortezomib; first compound 0.01 µM)	relative viability (Everolimus + Bortezomib; first compound 0.03162 µM)	relative viability (Everolimus + Bortezomib; first compound 0.1 µM)	relative viability (Everolimus + Bortezomib; first compound 0.3162 µM)	relative viability (Everolimus + Bortezomib; first compound 1 µM)	relative viability (Everolimus + Luminespib; first compound 0.1 µM)	relative viability (Everolimus + Dasatinib; first compound 0.1 µM)
NCI-H727	0.263	0.211	0.179	0.231	0.208	0.47	0.372	0.345	0.365	0.242	0.317	0.445	0.276	0.513	0.546	0.434	0.597	0.52	–	–
NCI-H838	0.57	0.54	0.499	0.588	0.495	0.206	0.153	0.172	0.266	0.262	0.243	0.274	0.333	0.42	0.48	0.377	0.41	0.597	0.198	0.265
NCI-H1355	0.541	0.415	0.349	0.394	0.377	0.302	0.33	0.258	0.265	0.436	0.402	0.334	0.316	0.611	0.567	0.593	0.592	0.564	0.268	0.315
NCI-H1437	0.913	0.89	0.836	0.804	0.661	1.12	1.11	1.06	0.948	0.243	0.267	0.209	0.317	0.443	0.505	0.342	0.302	0.413	1.08	0.21
NCI-H1650	1.2	0.824	1.06	1.2	0.876	0.167	0.207	0.208	0.19	0.288	0.225	0.315	0.295	0.196	0.186	0.179	0.243	0.199	0.184	0.263
NCI-H1651	0.555	0.581	0.576	0.557	0.399	0.589	0.531	0.575	0.567	0.297	0.335	0.24	0.405	0.766	0.66	0.8	0.731	0.564	0.612	0.259
NCI-H1666	0.766	0.687	0.508	0.559	0.42	0.898	0.964	0.98	0.929	0.826	0.722	0.78	0.813	0.644	0.527	0.494	0.56	0.533	0.909	0.795
